# Laboratory results reported in US20240024273A1, “TOPICAL ADMINISTRATION OF 2-(DIETHYLAMINO)ETHYL 2-(4-ISOBUTYLPHENYL)PROPRIONATE FOR TREATMENT OF DISEASES” (TECHFIELDS PHARMA CO., LTD., priority 2020, published 2024).
# Assays:
# [1] = test system: osteoarthritis of the knee; assay: Second Phase 2 study: Investigator's assessment of response to therapy (IART); type: in vivo, human; details: Week 12; for IART: Good and Very good / IART: Poor and Very Poor / IART: fair: first 130 subjects; for IART, Good and Very good / IART, Poor and Very Poor / IART, fair: all subjects
# Description: 4.9.3. Exploratory Efficacy Endpoints: • 1. Investigator's global assessment of response to therapy of the target knee at 2, 4, 8, and 12 weeks of treatment; • 2. Change from Baseline over time in overall WOMAC (VAS) score for the target knee after the treatment is stopped for 2 weeks.
# [2] = test system: osteoarthritis of the knee; assay: Second Phase 2 study: WOMAC difficulty performing daily activities (functional ability) subscale score; type: in vivo, human
# Description: This is a Phase 2, multicenter, randomized, double blind (within dose), Ibuprofen-placebo controlled, parallel group, dose range finding study to evaluate the efficacy, safety, and PK of 2-(diethylamino)ethyl 2-(4-isobutylphenyl)propionate spray in adult subjects with clinically symptomatic OA of the knee. For subjects with bilateral knee pain, both knees will be treated, but the most symptomatic knee (ie, the most painful knee as measured by the Western Ontario and McMaster University Osteoarthritis Index [WOMAC® 3.1] pain subscale score at Screening) will be designated as the target knee for efficacy analyses. For subjects with unilateral knee pain, only the symptomatic (target) knee will be treated.
# The VAS version of the WOMAC will be used for the Primary and Secondary Efficacy Endpoints. Efficacy endpoints will be assessed at Screening and Baseline (Day 1) and at the Week 2, Week 4, Week 8, and Week 12/EOS visits.
# 4.9.2. Secondary Efficacy Endpoints: • 1. Change from Baseline in the WOMAC (VAS) pain subscale score for the target knee at 2, 8, and 12 weeks of treatment; • 2. Change from Baseline in the WOMAC (VAS) stiffness subscale scores for the target knee and WOMAC (VAS) functional ability subscale scores at 2, 4, 8, and 12 weeks of treatment; • 3. Change from Baseline in the overall WOMAC (VAS) score at 2, 4, 8, and 12 weeks of treatment; • 4. Subject's global assessment of disease status of the target knee at 2, 4, 8, and 12 weeks of treatment; • 5. Subject's global assessment of response to therapy of the target knee at 2, 4, 8, and 12 weeks of treatment; • 6. Amount of rescue medication (acetaminophen) consumed per day for target knee pain.
# The Secondary Efficacy Endpoints, change from Baseline in the WOMAC subscale scores for pain, stiffness, and functional ability, and overall WOMAC score at 2, 4, 8, and 12 weeks of treatment, will be analyzed using the same methods as for the Primary Efficacy Endpoint.
# [3] = 17.5 mg/knee BID, Week 12, first 130 subjects
# [4] = Week 12, 4.375 mg/knee BID (n = 23), first 130 subjects
# [5] = Week 12, 8.75 mg/knee BID (n = 24), first 130 subjects
# [6] = Week 12, 17.5 mg/knee BID (n = 19), first 130 subjects
# [7] = all subjects, 4.375 mg/knee BID, n = 49, Week 12
# [8] = all subjects, 8.75 mg/knee BID, n = 54, Week 12
smiles,measurement,setting,value
CCN(CC)CCOC(=O)C(C)c1ccc(CC(C)C)cc1 (stereo not shown) [2-(diethylamino)ethyl 2-(4-isobutylphenyl)propionate],IART: Good and Very good,[1]; 4.375 mg/knee BID (n = 23),39.1%
same,IART: Poor and Very Poor,[1]; 4.375 mg/knee BID (n = 23),4.3%
same,IART: fair,[1]; 4.375 mg/knee BID (n = 23),56.5%
same,IART: Good and Very good,[1]; 8.75 mg/knee BID (n = 24),37.5%
same,IART: Poor and Very Poor,[1]; 8.75 mg/knee BID (n = 24),12.5%
same,IART: fair,[1]; 8.75 mg/knee BID (n = 24),50.0%
same,IART: Good and Very good,[1]; 17.5 mg/knee BID (n = 19),57.9%
same,IART: Poor and Very Poor,[1]; 17.5 mg/knee BID (n = 19),5.3%
same,IART: fair,[1]; 17.5 mg/knee BID (n = 19),36.8%
same,"IART, Good and Very good","[1]; 4.375 mg/knee BID, n = 49",40.8%
same,"IART, Poor and Very Poor","[1]; 4.375 mg/knee BID, n = 49",10.2%
same,"IART, fair","[1]; 4.375 mg/knee BID, n = 49",49.0%
same,"IART, Good and Very good","[1]; 8.75 mg/knee BID, n = 54",50.0%
same,"IART, Poor and Very Poor","[1]; 8.75 mg/knee BID, n = 54",13.0%
same,"IART, fair","[1]; 8.75 mg/knee BID, n = 54",37.0%
same,"IART, Good and Very good","[1]; 17.5 mg/knee BID, n = 52",61.5%
same,"IART, Poor and Very Poor","[1]; 17.5 mg/knee BID, n = 52",3.8%
same,"IART, fair","[1]; 17.5 mg/knee BID, n = 52",34.6%
same,"WOMAC functional ability, difference from oral ibuprofen",[2]; [3],−15.6
same,"WOMAC functional ability, difference from placebo",[2]; [3],−19.1
same,"WOMAC Difficulty Performing Daily Activities Subscale Score, Day 1, Avg.","[2]; Avg. of all patients (blinded), Low Dose (2 spray/knee, 8.75 mg/knee) Cohort, Day 1",60.4
same,"WOMAC Difficulty Performing Daily Activities Subscale Score, Follow-up, Avg.","[2]; Avg. of all patients (blinded), Low Dose (2 spray/knee, 8.75 mg/knee) Cohort, Follow-up",40.1
same,"WOMAC Difficulty Performing Daily Activities Subscale Score, Week 2, Avg.","[2]; Avg. of all patients (blinded), Low Dose (2 spray/knee, 8.75 mg/knee) Cohort, Week 2",49.8
same,"WOMAC Difficulty Performing Daily Activities Subscale Score, Week 4, Avg.","[2]; Avg. of all patients (blinded), Low Dose (2 spray/knee, 8.75 mg/knee) Cohort, Week 4",44.0
same,"WOMAC Difficulty Performing Daily Activities Subscale Score, Week 8, Avg.","[2]; Avg. of all patients (blinded), Low Dose (2 spray/knee, 8.75 mg/knee) Cohort, Week 8",41.1
same,"WOMAC Difficulty Performing Daily Activities Subscale Score, Week 12, Avg.","[2]; Avg. of all patients (blinded), Low Dose (2 spray/knee, 8.75 mg/knee) Cohort, Week 12",39.8
same,"WOMAC Difficulty Performing Daily Activities Subscale Scores, Baseline (LS Mean)","[2]; 4.375 mg/knee BID (n = 23), first 130 subjects",60.2 mm
same,"WOMAC Difficulty Performing Daily Activities Subscale Scores, Baseline (LS Mean)","[2]; 8.75 mg/knee BID (n = 24), first 130 subjects",61.6 mm
same,"WOMAC Difficulty Performing Daily Activities Subscale Scores, Baseline (LS Mean)","[2]; 17.5 mg/knee BID (n = 19), first 130 subjects",63.9 mm
same,"WOMAC Difficulty Performing Daily Activities Subscale Scores, % of improvement from Oral Ibuprofen",[2]; [4],−10.9%
same,"WOMAC Difficulty Performing Daily Activities Subscale Scores, % of improvement from Placebo",[2]; [4],−14.2%
same,"WOMAC Difficulty Performing Daily Activities Subscale Scores, % of improvement from baseline",[2]; [4],−43.9%
same,"WOMAC Difficulty Performing Daily Activities Subscale Scores, Changes from Baseline (LS Mean)",[2]; [4],−26.4 mm
same,"WOMAC Difficulty Performing Daily Activities Subscale Scores, Different from oral ibuprofen (LS Mean)",[2]; [4],−4.8 mm
same,"WOMAC Difficulty Performing Daily Activities Subscale Scores, Different from placebo (LS Mean)",[2]; [4],−8.3 mm
same,"WOMAC Difficulty Performing Daily Activities Subscale Scores, Week 12 (LS Mean)",[2]; [4],33.8 mm
same,"WOMAC Difficulty Performing Daily Activities Subscale Scores, % of improvement from Oral Ibuprofen",[2]; [5],−12.5%
same,"WOMAC Difficulty Performing Daily Activities Subscale Scores, % of improvement from Placebo",[2]; [5],−15.9%
same,"WOMAC Difficulty Performing Daily Activities Subscale Scores, % of improvement from baseline",[2]; [5],−45.6%
same,"WOMAC Difficulty Performing Daily Activities Subscale Scores, Changes from Baseline (LS Mean)",[2]; [5],−28.1 mm
same,"WOMAC Difficulty Performing Daily Activities Subscale Scores, Different from oral ibuprofen (LS Mean)",[2]; [5],−6.6 mm
same,"WOMAC Difficulty Performing Daily Activities Subscale Scores, Different from placebo (LS Mean)",[2]; [5],−10.0 mm
same,"WOMAC Difficulty Performing Daily Activities Subscale Scores, Week 12 (LS Mean)",[2]; [5],33.4 mm
same,"WOMAC Difficulty Performing Daily Activities Subscale Scores, % of improvement from Oral Ibuprofen",[2]; [6],−25.2%
same,"WOMAC Difficulty Performing Daily Activities Subscale Scores, % of improvement from Placebo",[2]; [6],−28.5%
same,"WOMAC Difficulty Performing Daily Activities Subscale Scores, % of improvement from baseline",[2]; [6],−58.2%
same,"WOMAC Difficulty Performing Daily Activities Subscale Scores, Changes from Baseline (LS Mean)",[2]; [6],−37.2 mm
same,"WOMAC Difficulty Performing Daily Activities Subscale Scores, Different from oral ibuprofen (LS Mean)",[2]; [6],−15.6 mm
same,"WOMAC Difficulty Performing Daily Activities Subscale Scores, Different from placebo (LS Mean)",[2]; [6],−19.1 mm
same,"WOMAC Difficulty Performing Daily Activities Subscale Scores, Week 12 (LS Mean)",[2]; [6],26.7 mm
same,"WOMAC Difficulty Performing Daily Activities Subscale Scores, % of improvement from Oral Ibuprofen",[2]; [7],−1.3%
same,"WOMAC Difficulty Performing Daily Activities Subscale Scores, % of improvement from Placebo",[2]; [7],−5.6%
same,"WOMAC Difficulty Performing Daily Activities Subscale Scores, % of improvement from baseline",[2]; [7],−42.8%
same,"WOMAC Difficulty Performing Daily Activities Subscale Scores, Changes from Baseline (LS Mean)",[2]; [7],−25.4 mm
same,"WOMAC Difficulty Performing Daily Activities Subscale Scores, Week 12 (LS Mean)",[2]; [7],33.9 mm
same,"WOMAC Difficulty Performing Daily Activities Subscale Scores, % of improvement from Oral Ibuprofen",[2]; [8],−4.6%
same,"WOMAC Difficulty Performing Daily Activities Subscale Scores, % of improvement from Placebo",[2]; [8],−8.9%
same,"WOMAC Difficulty Performing Daily Activities Subscale Scores, % of improvement from baseline",[2]; [8],−46.1%
